Experimental data as given in patent US11427548B2 (Arvinas Operations, Inc., priority 2015, dated 2022).
Read-outs that look alike come from different tables or passages of the source.

Target: T1, Androgen Receptor (Homo sapiens, UniProt P10275)
T1 construct: endogenous in cells; host or cells: VCaP cells
T1 sequence (P10275 1-920): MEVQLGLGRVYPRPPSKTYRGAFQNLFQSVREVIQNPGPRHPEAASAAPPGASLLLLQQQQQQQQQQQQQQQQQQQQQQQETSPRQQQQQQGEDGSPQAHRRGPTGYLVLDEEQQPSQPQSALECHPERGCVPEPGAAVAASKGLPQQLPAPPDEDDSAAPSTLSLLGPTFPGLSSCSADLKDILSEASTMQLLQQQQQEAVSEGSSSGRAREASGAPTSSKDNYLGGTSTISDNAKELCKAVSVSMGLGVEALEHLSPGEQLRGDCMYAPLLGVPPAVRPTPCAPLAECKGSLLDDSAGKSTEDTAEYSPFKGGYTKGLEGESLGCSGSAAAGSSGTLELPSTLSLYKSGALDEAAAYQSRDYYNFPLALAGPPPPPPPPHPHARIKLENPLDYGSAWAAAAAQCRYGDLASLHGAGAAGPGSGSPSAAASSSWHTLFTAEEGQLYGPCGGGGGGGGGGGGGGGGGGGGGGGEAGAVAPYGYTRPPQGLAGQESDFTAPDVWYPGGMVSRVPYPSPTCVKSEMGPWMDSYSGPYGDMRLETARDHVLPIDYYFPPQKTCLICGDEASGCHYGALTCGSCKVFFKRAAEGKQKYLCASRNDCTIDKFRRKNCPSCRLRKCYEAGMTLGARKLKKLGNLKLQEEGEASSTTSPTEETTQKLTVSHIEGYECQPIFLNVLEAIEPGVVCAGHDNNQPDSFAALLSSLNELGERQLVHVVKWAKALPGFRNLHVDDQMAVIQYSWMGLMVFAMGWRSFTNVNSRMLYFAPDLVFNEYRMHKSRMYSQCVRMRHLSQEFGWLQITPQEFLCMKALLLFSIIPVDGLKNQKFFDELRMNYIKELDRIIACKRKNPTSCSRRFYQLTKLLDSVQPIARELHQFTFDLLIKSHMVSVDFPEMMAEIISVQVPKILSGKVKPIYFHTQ
Assay: Androgen Receptor ELISA assay (PathScan AR ELISA) in VCaP cells: AR degradation, Dmax and DC50
Assay type: cell-based
In short: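 After 24 h exposure of VCaP cells (charcoal-stripped serum, 0.1 nM R1881 agonist, 0.1% DMSO) to seven half-log compound concentrations, residual AR in lysates was measured by PathScan ELISA (TMB absorbance, 450 nm). Cells were plated at 30,000/well and grown at least 3 days beforehand.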

[1] = VCaP cells; Table 36; read-out: VCaP DC50
[2] = VCaP cells; Table 35; read-out: VCaP DC50
[3] = VCaP, VCaP cells; Table 35; read-out: VCaP Dmax (%)
[4] = read-out: VCaP DC50; concentration that caused 50% Androgen Receptor degradation, VCaP cells
[5] = read-out: VCaP DC50; VCaP cells; Table 34

| Compound | DC50 [1] | Dmax (VCaP, read-out: VCaP Dmax (%)) | also measured |
| --- | --- | --- | --- |
| CC(C)[C@H](C(=O)N1C[C@H](O)C[C@H]1C(=O)NCc1ccc(Cl)cc1)N1Cc2ccc(N3CCN(CCCc4ccc(C(=O)N[C@H]5C(C)(C)[C@H](Oc6ccc(C#N)c(C(F)(F)F)c6)C5(C)C)cc4)CC3)cc2C1=O [Example 769, (2S,4R)-N-(4-chlorobenzyl)-1-((R)-2-(6-(4-(3-(4-(((1r,3r)-3-(4-cyano-3-(trifluoromethyl)phenoxy)-2,2,4,4-tetramethylcyclobutyl)carbamoyl)phenyl)propyl)piperaizn-1-yl)-1-oxoisoindolin-2-yl)-3-methylbutanoyl)-4-hydroxypyrrolidine-2-carboxamide] | > 501 nM | – | Dmax (VCaP, VCaP cells; Table 36; read-out: VCaP Dmax (%)): < 25% |
| Cc1ncsc1-c1ccc([C@H](C)NC(=O)[C@@H]2C[C@@H](O)CN2C(=O)[C@@H](NC(=O)COc2ccc(OC3CCN(c4ccc(N5C(=S)N(c6ccc(C#N)c(C(F)(F)F)c6)C(=O)C5(C)C)cc4)CC3)nc2)C(C)(C)C)cc1 [Example 430] | – | < 25% | DC50 (read-out: VCaP DC50; VCaP cells; Table 35): > 501 nM |
| Cc1ncsc1-c1ccc([C@H](C)NC(=O)[C@@H]2C[C@@H](O)CN2C(=O)[C@@H](NC(=O)CN2CCN(CCCc3ccc(C(=O)N[C@H]4C(C)(C)[C@H](Oc5ccc(C#N)c(Cl)c5)C4(C)C)cc3)[C@H](CO)C2)C(C)(C)C)cc1 [Example 824, (2S,4R)-1-((S)-2-(2-((S)-4-(3-(4-(((1r,3S)-3-(3-chloro-4-cyanophenoxy)-2,2,4,4-tetramethylcyclobutyl)carbamoyl)phenyl)propyl)-3-(hydroxymethyl)piperazin-1-yl)acetamido)-3,3-dimethylbutanoyl)-4-hydroxy-N-((S)-1-(4-(4-methylthiazol-5-yl)phenyl)ethyl) pyrrolidine-2-carboxamide] | < 50 nM | > 71% | – |
| CC(C)(C)[C@H](NC(=O)COCCCCOc1ccc(-c2ccc(N3C(=S)N(c4cnc(C#N)c(C(F)(F)F)c4)C(=O)C3(C)C)cc2)cc1)C(=O)N1C[C@H](O)C[C@H]1C(=O)NCc1ccc(C#N)cc1 [Example 571] | – | – | DC50 [2]: < 50 nM; Dmax [3]: > 71% |
| Cc1cc(OCCCCOCC(=O)N[C@H](C(=O)N2C[C@H](O)C[C@H]2C(=O)NCc2ccc(-c3scnc3C)cc2)C(C)(C)C)ccc1-c1ccc(N2C(=S)N(c3ccc(C#N)c(C(F)(F)F)c3)C(=O)C2(C)C)cc1 [Example 136, (2S,4R)-1-[(2S)-2-(2-{4-[4-(4-{3-[4-cyano-3-(trifluoromethyl)phenyl]-5,5-dimethyl-4-oxo-2-sulfanylideneimidazolidin-1-yl}phenyl)-3-methylphenoxy]butoxy}acetamido)-3,3-dimethylbutanoyl]-4-hydroxy-N-{[4-(4-methyl-1,3-thiazol-5-yl)phenyl]methyl}pyrrolidine-2-carboxamide] | – | > 71% | DC50 (read-out: VCaP DC50; concentration that caused 50% Androgen Receptor degradation, VCaP cells (Table 32)): < 50 nM |
| CC(C)(C)[C@H](NC(=O)COCCCOCCCCOc1ccc(N2C(=S)N(c3ccc(C#N)c(C(F)(F)F)c3)C(=O)C2(C)C)cc1)C(=O)N1C[C@H](O)C[C@H]1C(=O)NCc1ccc(-c2cnco2)cc1 [Example 34, (2S,4R)-1-[(2S)-2-(2-{3-[4-(4-{3-[4-cyano-3-(trifluoromethyl)phenyl]-5,5-dimethyl-4-oxo-2-sulfanylideneimidazolidin-1-yl}phenoxy)butoxy]propoxy}acetamido)-3,3-dimethylbutanoyl]-4-hydroxy-N-{[4-(l,3-oxazol-5-yl)phenyl]methyl}pyrrolidine-2-carboxamide] | – | > 71% | DC50 [4]: < 50 nM |
| Cc1ncsc1-c1ccc([C@H](C)NC(=O)[C@@H]2C[C@@H](O)CN2C(=O)[C@@H](NC(=O)[C@H](CO)N2CCN(CCOc3ccc(C(=O)N[C@H]4C(C)(C)[C@H](Oc5ccc(C#N)c(Cl)c5)C4(C)C)cc3)CC2)C(C)(C)C)cc1 [Example 655, (2S,4R)-1-((S)-2-((S)-2-(4-(2-(4-(((1r,3r)-3-(3-chloro-4-cyanophenoxy)-2,2,4,4-tetramethylcyclobutyl)carbamoyl)phenoxy)eth-yl)piperazin-1-yl)-3-hydroxypropanamido)-3,3-dimethylbutanoyl)-4-hydroxy-N-((S)-1-(4-(4-methylthiazol-5-yl)phenyl)ethyl)pyrrolidine-2-carboxamide] | > 501 nM | 26 to 50% | – |
| Cc1ncsc1-c1ccc([C@H](C)NC(=O)[C@@H]2C[C@@H](O)CN2C(=O)[C@@H](NC(=O)CN2CCN(CCCc3ccc(C(=O)N[C@H]4C(C)(C)[C@H](Oc5ccc(C#N)c(Cl)c5)C4(C)C)cc3)[C@@H](CO)C2)C(C)(C)C)cc1 [Example 823, (2S,4R)-1-((S)-2-(2-((R)-4-(3-(4-(((1r,3R)-3-(3-chloro-4-cyanophenoxy)-2,2,4,4-tetramethylcyclobutyl)carbamoyl)phenyl)propyl)-3-(hydroxymethyl)piperazin-1-yl)acetamido)-3,3-dimethylbutanoyl)-4-hydroxy-N-((S)-1-(4-(4-methylthiazol-5-yl)phenyl)ethyl) pyrrolidine-2-carboxamide] | < 50 nM | > 71% | – |
| Cc1ncsc1-c1ccc([C@H](C)NC(=O)[C@@H]2C[C@@H](O)CN2C(=O)[C@@H](NC(=O)COCCCCOc2ccc(C(=O)N[C@H]3C(C)(C)[C@H](Oc4ccc(C#N)c(C(F)(F)F)c4)C3(C)C)cc2)C(C)(C)C)cc1 [Example 641, (2S,4R)-1-((S)-2-(2-(4-(4-(((1r,3r)-3-(4-cyano-3-(trifluorometh-yl)phenoxy)-2,2,4,4-tetramethylcyclobutyl)carbamoyl)phenoxy)butoxy)acetamido)-3,3-dimethylbutanoyl)-4-hydroxy-N-((S)-1-(4-(4-methylthiazol-5-yl)phenyl)ethyl)pyrrolidine-2-carboxamide] | < 50 nM | – | Dmax (VCaP, read-out: VCaP Dmax (%), VCaP cells; Table 36): > 71% |
| CC(C)(C)[C@H](NC(=O)COCCCOCCCCOc1ccc(N2C(=S)N(c3ccc(C#N)c(C(F)(F)F)c3)C(=O)C2(C)C)cc1)C(=O)N1C[C@H](O)C[C@H]1C(=O)NCc1ccc(-c2cnco2)c(F)c1 [Example 367] | – | 51 to 70% | DC50 [5]: < 50 nM |
| CC(C)(C)[C@H](NC(=O)COCCCCCNc1ccc(C(=O)N[C@H]2C(C)(C)[C@H](Oc3ccc(C#N)c(Cl)c3)C2(C)C)cc1)C(=O)N1C[C@H](O)C[C@H]1C(=O)NCc1ccc(C#N)cc1 [Example 542] | – | – | DC50 [2]: < 50 nM; Dmax [3]: > 71% |
| Cc1ncsc1-c1ccc([C@@H](C)NC(=O)[C@H]2C[C@H](O)CN2C(=O)[C@H](NC(=O)COCCCCCNc2ccc(C(=O)N[C@H]3C(C)(C)[C@H](Oc4ccc(C#N)c(Cl)c4)C3(C)C)cc2)C(C)(C)C)cc1 [Example 454] | – | – | DC50 [2]: > 501 nM; Dmax [3]: 26 to 50% |
| Cc1ncsc1-c1ccc(CNC(=O)[C@@H]2C[C@@H](O)CN2C(=O)[C@@H](NC(=O)COCCCCOCCCCOc2ccc(N3C(=S)N(c4ccc(C#N)c(C(F)(F)F)c4)C(=O)C3(C)C)cc2F)C(C)(C)C)cc1 [Example 26, (2S,4R)-1-[(2S)-2-(2-{4-[4-(4-{3-[4-cyano-3-(trifluoromethyl)phenyl]-5,5-dimethyl-4-oxo-2-sulfanylideneimidazolidin-1-yl}-2-fluorophenoxy)butoxy]butoxy}acetamido)-3,3-dimethylbutanoyl]-4-hydroxy-N-{[4-(4-methyl-1,3-thiazol-5-yl)phenyl]methyl}pyrrolidine-2-carboxamide] | – | 51 to 70% | DC50 [4]: < 50 nM |
| Cc1ncsc1-c1ccc(CNC(=O)[C@H]2C[C@@H](O)CN2C(=O)[C@@H](NC(=O)[C@H](C)Oc2ccc(OCCOc3ccc(N4C(=S)N(c5ccc(C#N)c(C(F)(F)F)c5)C(=O)C4(C)C)cc3)cc2)C(C)(C)C)cc1 [Example 382] | – | 26 to 50% | DC50 [5]: < 50 nM |
| Cc1ncoc1C12CC(CNC(=O)[C@@H]3C[C@@H](O)CN3C(=O)C(NC(=O)COCCCOCCCOc3ccc(N4C(=O)N(c5ccc(C#N)c(C(F)(F)F)c5)C(=O)C4(C)C)cc3)C(C)(C)C)(C1)C2 (stereo partly drawn) [Example 633, (2S,4)R-1-((S)-2-(2-(3-((5-(4-(3-(4-cyano-3-(trifluoromethyl)phenyl)-5,5-dimethyl-4-oxo-2-thioxoimidazolidin-1-yl)phenoxy)pentyl)oxy)propoxy)acetamido)-3,3-dimethylbutanoyl)-4-hydroxy-N-((3-(4-methyloxazol-5-yl)bicyclo[1,.1.1]pentan-1-yl)methyl)pyrrolidine-2-carboxamide] | – | < 25% | DC50 (read-out: VCaP DC50; VCaP cells; Table 36): > 501 nM |
